Laboratory results reported in US20130089536A1, “PHARMACEUTICAL COMPOSITION TO PREVENT AND TREAT ALZHEIMER'S DISEASE COMPRISING GCP II MUTANT” (KOREA CENTER FOR DISEASE CONTROL AND PREVENTION, priority 2011, published 2013).
“Also recorded” adds a separate entry of the source.

Experiments:
[1] = tested on: Aβ; assay: Aβ clearance activity of GCP II mutants, lysate of transfected PC3 cells, dot blotting and western blotting (6E10); assay type: biochemical; conditions: cell lysate 48 hr after transfection, Aβ 2 μM, overnight, FIGS. 4a, 4b
Method: (§1) To identify Aβ clearance activity of GCP II mutants, various mutant plasmids were transfected in PC3 cells known not to express endogenous GCP II. After 48 hr, the cell lysates were mixed with Aβ (2 μM) and incubated for overnight. The remaining Aβ peptides were detected by dot blotting and western blotting using 6E10 antibody. […] The inventors of the present invention also measured cleavage activity of GCP II on exogenously treated Aβ peptides in culture medium by ELISA. One day after transfection, 1 ng/ml Aβ was treated into the medium, followed by incubation for 8 hr at 37° C. Similarly with western blotting, residual Aβ was reduced by K699S but not by G548P (see FIG. 4c).
48 hrs later, the cell lysate was mixed with Aβ (2 μM) and incubated for overnight.
To quantify the remaining Aβ peptides, the mixture of cell lysate and Aβ (2 μM) proceeded to dot blotting and the result was analyzed by the same manner as described in Example <2-2>. 1 μl of the mixture of cell lysate and Aβ (2 μM) was dropped on nitrocellulose membrane, which was then completely dried. The dried membrane proceeded to blocking with TBS-T containing 5% nonfat dry milk at room temperature for 1 hr. Then, the membrane was incubated with anti-Aβ antibody, 6E10 (SIGNET; SIG-39300, 1:2000) in 5% nonfat dry milk at 4° C. for overnight. […] After washing three times, proteins were detected using chemiluminescent substrate.

[2] = tested on: Aβ; assay: Cleavage of exogenously treated Aβ in culture medium of transfected cells, ELISA; assay type: cell-based; conditions: 1 ng/ml Aβ one day after transfection, 8 hr at 37° C., FIG. 4c
Method: as §1
Vectors encoding the hGCP II and various mutant hGCP II genes were transfected into PC3 cells in a 12-well plate. About 30 hr later, the culture medium was changed with fresh one treated with Aβ1-40 of Aβ1-42 peptide in the presence or absence of 2-PMPA, and the cells were incubated for another 8 hr. The medium was collected and assayed for residual Aβ1-40 or Aβ1-42 using ELISA kits (Invitrogen) following manufacturer's protocol. Cells transfected with the empty pcDNA3 empty vector were used as the negative control. […]

[3] = NAAG hydrolysis by GCP II mutants, lysate of transfected H4 cells; assay type: biochemical; conditions: H4 cell lysate, [3H]-labeled NAAG 20 μM, FIG. 3a
Method: The inventors of the present invention also investigated the changes of enzyme activity of GCP II mutant. To analyze enzyme activity of various mutants, mutant proteins with a substitution in the S1′ pocket (R210A, K699S) or S1 pocket (R536L, G548P) were transfected in H4 cells. To measure NAAG hydrolysis, cell lysate was incubated with [H]^3-labeled NAAG (20 μM) and GCP II specific […]. […] Additionally, to examine the effect of Aβ on NAAG cleavage of GCP II, rhGCP II was incubated with [H]^3-labeled NAAG (20 μM) and Aβ peptides at the same time. As a result, NAAG cleavage activity of GCP II was not affected by Aβ peptide (see FIG. 3b).
The activity of endogenous or over-expressed Glutamate carboxypeptidase II protein (GCP II) was measured as follows. Cell lysate (50 μg) was incubated with 20 μM of N-acetyl-L-aspartyl-L-[3,4-3H] glutamate (NAAG; NEN corporation) with or without 20 nM 2-PMPA, a GCP II specific inhibitor, in a total volume of 100 μl containing 50 mM HEPES and 150 mM NaCl for 1 hr at 37° C. Upon completion of the reaction, sample mixture was loaded on AG 1-X8 anion-exchange resin (Biorad) prepared in 96 well columns, followed by centrifugation at 2000 rpm for 5 min. […] All the eluted samples were mixed with 1 ml of scintillation solution (Optiphase HiSafe; Wallac) and then radioactivity was measured by scintillation counter (Wallac Inc.). […]

[4] = tested on: Aβ1-40; assay: Aβ1-40 cleavage by rhGCP II, residual Aβ by ELISA; assay type: biochemical; conditions: rhGCP II incubated with Aβ1-40, FIG. 1a
Method: (§2) (a, b) rhGCP II was incubated with Aβ40 or NAAG with or without 2-PMPA or EDTA. A(340 or NAAG level was detected by ELISA or NAAG cleavage assay. (c) After lentiviral GCP II was infected into rat primary astrocytes, monomeric Aβ40 was treated to cells. And 2-PMPA was treated thereto at various doses. The Aβ40 concentration in cell growth medium was measured by ELISA assay. (d, e) Eight-month old APP Swedish/PS1E9 transgenic mice were injected intraperitoneally with 10 mg/kg of 2-PMPA or PBS 2/wk for 1 month (9 times). Membrane fractions were analyzed by NAAG and ELISA assay.
As a result, rhGCP II cleaved Aβ1-40 peptides about 80 percent compared with the control, but 2-PMPA had no effect on Aβ1-40 cleavage of GCP II (see FIG. 1a). […] To investigate the effect of 2-PMPA in the mouse brain, 2-PMPA was treated into transgenic AD model mice. The inventors of the present invention used 2-PMPA (10 mg/kg, intraperitoneally, 2×/wk for 1 month) to treat 8-month old APP Swedish/PS1Δ9 transgenic mice. Aβ1-40 and Aβ1-42 levels in the cortical membrane fractions were analyzed by ELISA and NAAG cleavage activity of GCP II was measured by NAAG assay. As a result, cleavage of NAAG was reduced about 90 percent in 2-PMPA treated mouse compared with PBS control (see FIG. 1d). However, total levels of Aβ1-40 and Aβ1-42 were not changed by the treatment of 2-PMPA (see FIG. 1e). […]

[5] = molecular target: GCP II (Homo sapiens, UniProt Q04609); assay: NAAG cleavage assay with or without 2-PMPA; assay type: biochemical; conditions: 20 μM [3H]NAAG, 20 nM 2-PMPA, 1 hr at 37° C.; FIG. 1b
Method: The activity of endogenous or over-expressed Glutamate carboxypeptidase II protein (GCP II) was measured as follows. Cell lysate (50 μg) was incubated with 20 μM of N-acetyl-L-aspartyl-L-[3,4-3H] glutamate (NAAG; NEN corporation) with or without 20 nM 2-PMPA, a GCP II specific inhibitor, in a total volume of 100 μl containing 50 mM HEPES and 150 mM NaCl for 1 hr at 37° C. Upon completion of the reaction, sample mixture was loaded on AG 1-X8 anion-exchange resin (Biorad) prepared in 96 well columns, followed by centrifugation at 2000 rpm for 5 min. The resin bound with the sample mixture was eluted with 0.5 mM formate (100 ml) and centrifuged at 2000 rpm for 5 min. All the eluted samples were mixed with 1 ml of scintillation solution (Optiphase HiSafe; Wallac) and then radioactivity was measured by scintillation counter (Wallac Inc.).

[6] = molecular target: T1, lentiviral GCP II (Homo sapiens, UniProt Q04609); assay type: cell-based
T1 construct: host or cells: rat primary astrocytes (lentiviral infection)

[7] = tested on: Aβ1-40 and Aβ1-42; assay: Aβ1-40 and Aβ1-42 levels in cortical membrane fractions of 2-PMPA treated APP Swedish/PS1ΔE9 transgenic mice (ELISA); assay type: in vivo, mouse; conditions: 10 mg/kg intraperitoneally, 2×/wk for 1 month, 8-month old APP Swedish/PS1ΔE9 mice, FIG. 1e
Method: as §2
Vectors encoding the hGCP II and various mutant hGCP II genes were transfected into PC3 cells in a 12-well plate. About 30 hr later, the culture medium was changed with fresh one treated with Aβ1-40 of Aβ1-42 peptide in the presence or absence of 2-PMPA, and the cells were incubated for another 8 hr. […]
To investigate the effect of 2-PMPA in the mouse brain, 8-month old APP Swedish/PS1Δ9 mice transfected by the same manner as described in Example <1-6> were treated nine times with 2-PMPA (10 mg/kg, intraperitoneally, 2/wk for 1 month) or the same amount of PBS. Aβp1-40 and Aβ1-42 levels in the cortical membrane fractions were analyzed by the same manner as described in Example <1-3>. NAAG cleavage activity of GCP II was measured by the same manner as described in Example <1-4>.

[8] = molecular target: recombinant human GCPII (rhGCP II) (Homo sapiens, UniProt Q04609); assay: Effect of 2-PMPA on Aβ1-40 cleavage of rhGCP II (ELISA); assay type: biochemical; conditions: 2-PMPA added at different concentrations, FIG. 1a
recombinant human GCPII (rhGCP II), sequence (Q04609 whole entry): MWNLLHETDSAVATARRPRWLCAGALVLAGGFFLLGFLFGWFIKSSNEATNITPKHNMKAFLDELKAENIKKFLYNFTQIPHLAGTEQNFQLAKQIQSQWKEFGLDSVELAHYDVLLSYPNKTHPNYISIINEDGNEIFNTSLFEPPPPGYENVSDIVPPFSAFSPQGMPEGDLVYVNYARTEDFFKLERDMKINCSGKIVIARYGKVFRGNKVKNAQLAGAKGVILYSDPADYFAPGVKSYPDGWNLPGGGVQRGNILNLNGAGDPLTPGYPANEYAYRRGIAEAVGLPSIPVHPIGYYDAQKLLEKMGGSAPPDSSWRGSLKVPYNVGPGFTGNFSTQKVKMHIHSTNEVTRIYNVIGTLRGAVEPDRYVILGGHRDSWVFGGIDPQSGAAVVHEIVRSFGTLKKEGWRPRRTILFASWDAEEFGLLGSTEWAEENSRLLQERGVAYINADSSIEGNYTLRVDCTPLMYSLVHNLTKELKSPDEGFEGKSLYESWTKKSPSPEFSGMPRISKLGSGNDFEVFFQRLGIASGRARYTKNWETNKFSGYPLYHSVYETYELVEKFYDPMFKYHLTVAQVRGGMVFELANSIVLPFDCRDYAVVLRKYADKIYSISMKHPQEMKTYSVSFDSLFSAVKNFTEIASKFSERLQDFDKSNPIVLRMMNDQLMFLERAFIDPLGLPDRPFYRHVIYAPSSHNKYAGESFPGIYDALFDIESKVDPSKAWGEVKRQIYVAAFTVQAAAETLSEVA

GCP II, sequence (Q04609 whole entry): as above
T1 sequence (Q04609 whole entry): as above

## K699S: GCP II mutant: 699th amino acid Lysine replaced with Serine, SEQ ID. NO: 2; S1′ pocket mutant
[1]
  Aβ cleavage activity compared with wild type: higher Aβ cleavage activity than the wild type; also recorded: cleaved; also recorded: cleaved Aβ more than wild type
[2]
  residual Aβ in culture medium: reduced
[3]
  activity of NAAG hydrolysis (in words): completely lost; also recorded: did not cleave

## rhGCP II: recombinant human GCPII (glutamate carboxypeptidase II), wild type
[4]
  Aβ1-40 peptide cleaved compared with control: about 80%

## O=C(O)CCC(CP(=O)(O)O)C(=O)O (stereo not drawn) [2-PMPA, 2-(Phosphonomethyl) pentanedioic acid]
[5]
  hydrolysis of NAAG by GCP II: completely blocked
[6]
  Aβ1-40 cleavage of lentiviral GCP II: did not block
[7]
  total level of Aβ1-40: not changed
  total level of Aβ1-42: not changed
[8]
  effect on Aβ1-40 cleavage of rhGCP II: no effect

## G548P: GCP II mutant protein with a substitution in the S1 pocket
[1]
  Aβ cleavage activity compared with wild type: lost Aβ cleavage activity; also recorded: did not; also recorded: lost its Aβ clearance activity
[2]
  residual Aβ in culture medium: not
[3]; listed as R548P
  activity of NAAG hydrolysis maintained compared with wild type GCP II: about 40%
